From a melting point compilation (Tetko et al.; mined from patent text by program, amines drawn as free bases though some values may be those of a salt)

SMILES	melting point
Cc1cc2c(c3c1C(c1ccc(C(C)C)cc1)CO3)CCCC2 (stereo not given)	54 to 55 °C
Cc1nc(Cl)c2ncn(-c3ccc(C(C)C)cc3Br)c2n1	49 to 52 °C
CC12CC3(C)CC(Br)(C1)CC(Br)(C2)C3	115 to 116 °C
CS(=O)(=O)c1ccc(-c2cnn(-c3ccc(F)cc3F)c(=O)c2-c2ccc(F)cc2)cc1	245 to 247 °C
COc1ccc(-c2cc(Br)c3cc(OC)ccc3n2)cc1	157 to 158 °C
O=C1c2cc3nnn(CCC4CCCCC4)c(=O)c3cc2OC2CCCN12 (stereo not given)	170 °C
CC(C(=O)O)c1ccc2c(c1)CC(C)(C)C2 (stereo not given)	180 to 183 °C
OCCc1nccn1Cc1coc(-c2ccc(OCc3coc(/C=C/c4ccc(Cl)cc4F)n3)cc2)n1	170 to 172 °C
C=CCN(C)c1c(C=NO)c(=O)n(C)c(=O)n1C	95.5 to 97.1 °C
c1ccc2c(c1)cc1n2CC2(CCNC2)C1 (stereo not given)	90 to 92 °C
COCC1COc2cc3ncnc(Nc4cc(Cl)cc(Cl)c4)c3cc2O1 (stereo not given)	269 to 274 °C
COc1cc(-c2ccc(C#N)o2)ccc1Br	76 to 77 °C
CON(C)C(=O)Cc1cc(Oc2ccc(C(F)(F)F)cc2Cl)ccc1[N+](=O)[O-]	134 to 135 °C
CC(c1ccccc1[N+](=O)[O-])S(N)(=O)=O (stereo not given)	107 to 109 °C
COc1cc(OCCCN(C)Cc2ccc(OC)c(OC)c2)ccc1NC(=O)c1cccc2c(=O)c3cccc(F)c3[nH]c12	108 °C
Clc1ncnc2oc(-c3ccccc3)cc12	136 to 138 °C
CCCCCCCCC1C=CC(Oc2ccc(C(=O)O)o2)=C2N=C3CCCC(C)(C)C3=C21 (stereo not given)	118 to 120 °C
Nc1cc(CS(=O)(=O)CCO)ccc1CS(=O)(=O)CCO	196 to 198 °C
COc1cc(C=CC(=O)c2ccc(C3CCCCC3)cc2)cc(OC)c1	75.5 to 76.2 °C
COc1cc(C=C2NC(=O)NC2=O)cc(OC)c1	285 to 287 °C

SMILES	melting point
Nc1ncnc2cc(-c3ccc(C(F)(F)F)cc3)sc12	181 to 194 °C
CSc1ccc(N)c(C(=O)O)c1	145 to 150 °C
CC(C)c1nn(-c2ccccn2)c(-c2ccc(F)cc2)c1Br	98 to 100 °C
O=C1c2ccccc2C(=O)C1c1cccc([N+](=O)[O-])c1	216 to 226 °C
COc1ccc(-c2nc3nccnc3[nH]2)c(N(C)C)c1	279 to 280 °C
Nc1cc2c(cc1[N+](=O)[O-])CCC2	131 to 132 °C
COC(=O)C(c1cc2c(cc1Cl)OCO2)c1cn(C)c2cc(Br)ccc12 (stereo not given)	183 to 185 °C
COc1cc(-c2cc(=O)c3ccc(OCC(O)CNC(C)(C)C)cc3o2)cc(OC)c1OC (stereo not given)	119 to 120 °C
CCn1nc(C(C)(C)C)c2c1C(=O)NCC(c1ccc(O)cc1)=N2	264 °C
Cc1cc(-c2c(-c3ccc(F)cc3)ncn2CC2CC2)ccn1	141 to 142 °C
CC1=NCN2C1=Cc1cncnc1-c1cccc(C(=O)O)c12	285 to 287 °C
CCCSc1sc(C(=O)N2CCCC2)c2c1-c1oncc1C(C)(C)C2	72 to 76 °C
CCOc1cc2c(cc1OC)C(c1ccc(C(=O)N(C(C)C)C(C)C)cc1)=NC1CC[N+](C)([O-])CC21 (stereo not given)	195 to 198 °C
COc1cc(CCCOc2c(CC(=O)O)cccc2OC)n(Cc2ccc(Cl)cc2Cl)n1	111 to 112 °C
Clc1cccc(C2=CCN(Cc3ccccc3)CC2)n1	100 to 102 °C
CC(=O)OCC(OC(C)=O)C1OC(OC(C)=O)(C(=O)O)CC(OC(C)=O)C1OC(C)=O (stereo not given)	132 to 133 °C
CCCCc1noc(-c2cccc(NC(=O)N(C)C)c2)n1	108 to 110 °C
CCCC1=C(C(=O)OCC)C(c2cc(F)ccc2OC)c2c[nH]nc2N1 (stereo not given)	164 to 167 °C
COC(=O)C1(C(N)=O)CC1	157 °C
N#CC12CC3CC(CC(Cl)(C3)C1)C2	156 to 157 °C

SMILES	melting point
CCCn1ncnc1COc1nn2c(-c3ccccc3)nnc2cc1-c1ccccc1	211 to 213 °C
CCCCCCCN(CCCCCSc1nc2ncccc2[nH]1)C(=O)NC(C)C	101 to 102 °C
CCCCCCCCOC(=O)CCc1cc(C(C)(C)C)c2oc(-c3ccc(-c4nc5cc(CCC(=O)OCCCCCCCC)cc(C(C)(C)C)c5o4)s3)nc2c1	68 to 70 °C
Cc1cc2c(cc1-c1ccc(F)cc1)NC(=O)CC(c1cccc(-n3ccnc3)c1)=N2	196 °C
CCCCCCCCCCCCCCCCCCOc1cc(N(CC(=O)OC)CC(=O)OC)cc([N+](=O)[O-])c1	68 to 74 °C
COc1c(NC(=O)c2ccc(C)c(-n3cc(C(=O)NCc4cccnc4)cn3)c2)cc(C(C)(C)C)cc1NS(C)(=O)=O	127 to 133 °C
O=C1C=c2c(c3c4ccccc4sc3c3[nH]c4ccccc4c23)=N1	> 300 °C
COc1cc2c(cc1C(F)(F)F)N(C(=O)Nc1ccc(Oc3cccnc3)nc1)CC2	202 to 204 °C
CCCc1c(OCc2cccc(C(=O)O)c2OCC)ccc(C(C)=O)c1O	154 to 156 °C
CC(C)=C(C=O)CC(=O)O	102 °C
CCOc1cccc(SCC(=O)O)c1CC(=O)O	147 to 150 °C
CC(C)NS(=O)(=O)c1ccc(S(N)(=O)=O)cc1	166 to 168 °C
COc1ccc(Nc2nc(Cl)nc(OCC3CCCCC3)n2)cc1Cl	114 °C
Cc1cc(Cl)nc(N(C(N)=O)c2ccccc2[N+](=O)[O-])n1	155 °C
COc1cc([N+](=O)[O-])c2ncccc2c1OCC(F)(F)F	109 to 115 °C
CCCCn1sc2nc3ccccc3n2c1=O	153 to 154 °C
CCOC(=O)c1cnn2c1c(=S)[nH]c1ccccc12	270 to 272 °C
CNc1cc(C(=O)Nc2c(C)cc(C(F)(C(F)(F)F)C(F)(F)F)cc2C)ccc1C#N	204 to 206 °C
CC(=O)NC1CCNC(c2ncccc2Cl)C1 (stereo not given)	118 to 120 °C
N=c1sc2cc(OC(F)(F)F)ccc2n1CCSc1ccccn1	104 °C

Next, values leading:

melting point	SMILES
110 to 111 °C	CC(=O)NC(C)(C)c1ccc(CN2CCN(c3ccccc3)CC2)cc1
153 to 155 °C	CCOc1cc2ncc(C#N)c(N(C)c3ccccc3)c2cc1OCC
245 °C	COc1ccc(CNc2nc(-c3ccc(C(=O)O)cc3)nc3scc(C)c23)cc1Cl
256 to 257 °C	O=C(O)Cc1sc(Nc2ccccc2)nc1-c1ccc(Cl)cc1
162 to 164 °C	C=CCn1cc(C(O)(c2ccc3c(cnn3C(=O)NCC)c2)C(F)(F)F)c2ccccc21 (stereo not given)
125 to 127 °C	O=c1oc(-c2cccc(Cl)c2)cc(O)c1SCCc1ccccc1
224 to 230 °C	O=C1c2ccccc2S(=O)(=O)N1C1CCN(CC2COc3ccccc3O2)CC1 (stereo not given)
105 to 107 °C	CCOC(=O)COc1ccc(C(C)=O)cc1NC(=O)c1ccc(OCCCCc2ccccc2)cc1
91 °C	Cc1cccc2c1Oc1ccccc1N2
69 to 71 °C	CC(C)(C)OC(=O)N1CCN(C(=O)CI)CC1
118 to 120 °C	CC(C)N1CCC(CNc2ccc(Cl)cc2C(=O)Nc2ccccn2)CC1
144 to 145 °C	Cc1oc(-c2ccccc2)nc1COc1ccc(Cn2cc(CC(=O)O)c(-c3ccccc3)n2)cn1
229 to 230 °C	COc1ccc(Cl)cc1C(=N)Nc1ccc(F)c(NC(=O)/C=C/c2ccccc2Cl)c1
85 to 87 °C	O=C(CNc1ccc2[nH]c(=O)[nH]c2c1)N1CCC(Cc2ccc(F)cc2)CC1
123 to 124 °C	CC(C)(C)OC(=O)N1CCN(C(=O)SCc2ccc(OCc3ccc(F)cc3)cc2)CC1
148 to 149 °C	O=C(CCC(=O)N1CCC(c2ccc(Cl)cc2)CC1)c1ccc2c(c1)CCNCC2
84 to 86 °C	COc1ccc2[nH]nc(N3CCN(C[C@@H](O)COc4cccc(-c5noc6ccsc56)c4)CC3)c2c1
235 to 236 °C	CNc1nc(-c2ccccc2)c(-c2nc3ccccc3c(=O)n2-c2ccc(OC)cc2)s1
128 °C	CC12CCC(C(=Cc3ccc(COc4ccccc4C(=O)O)cc3)C1=O)C2(C)C (stereo not given)
70 to 75 °C	COc1ccc(C=CC(=O)CCCCc2ccccc2)cc1O

melting point	SMILES
160 °C	Cc1cc(NC2=NCCN2CCNC(=O)Nc2ccc(C(=O)O)cc2)nc(C)n1
96 °C	Oc1ccc(CN2CCCCC2)c2cccnc12
56.6 to 57.1 °C	FC(F)(F)Oc1ccc(C2NCCc3ccccc32)cc1 (stereo not given)
158 to 164 °C	CS(=O)(=O)Nc1cccc(S(=O)(=O)N2CCOc3c(N4CCNCC4)cccc32)c1
247 to 249 °C	Cc1nc2ccccc2cc1NC(=O)N1CCN(c2cc(Cl)cc(Cl)c2)CC1
138 to 141 °C	CCC(N(C)C)n1cc(C(=O)CN2CCCCC2)cc1C(=O)c1ccc(Cl)cc1 (stereo not given)
81 to 83 °C	N#CCNS(=O)(=O)c1ccccc1
146 to 149 °C	COc1ccc(C2=NN(C3CCN(C(=O)CCCOc4ccc5[nH]c(=O)ccc5c4)CC3)C(=O)[C@@H]3CC=CC[C@H]23)cc1OC
263 to 265 °C	O=C1OC2(CCN(C(=O)Nc3cnc(-c4ccc(O)cc4)cn3)CC2)c2ccccc21
126 to 127 °C	COc1ccc(Nc2cnc3c(NCc4ccccc4)nc(NCCO)nc3c2)cc1
114 to 120 °C	O=C(CNC(=O)c1ccccc1)c1ccccc1
178 to 180 °C	CNC(C)CCC1(C(N)=O)c2ccccc2-c2ccccc21 (stereo not given)
> 250 °C	Nc1nc2ccccc2c2c1nc(O)n2CC1CCOCC1
80 °C	CCCCOc1ccc(Cl)cc1C(=O)NCCc1ccc(CC(=O)OCC)cc1
77 to 78 °C	O=C(Cc1ccccc1)c1ccc(OCCN2CCCC2)cc1
159 to 161 °C	Cc1cccc(C)c1N(CCCC(=O)N[C@@H](C)C(=O)O)C(=O)c1ccc(Cl)cc1
190 to 191 °C	CCSc1nn2c(-c3ccccc3)nnc2c2ccccc12
234 to 236 °C	O=C1NCCN1c1ccc(S(=O)(=O)Nc2ccc(Cl)cc2)cc1
95 to 97 °C	CC1(COc2ccc(OCCNCC(O)COc3ccccc3)cc2)OCCO1 (stereo not given)
134 to 136 °C	CCc1nn(C2CCCC2)c2cc(C(=O)NCCC(=O)NOCc3ccccc3)ccc12
